Results as given in patent US20200237786A1, “DIAGNOSIS AND TREATMENT OF ENDOMETRIOSIS BY SCREENING FOR L-FORM BACTERIA” (Soft Cell Biological Research, LLC, priority 2017, published 2020).

Legend:
[1] = tested on: Bacterial strains identified in Example 5; assay: Antibiotic sensitivity by diffusion disk test of strains cultured from each subject; assay type: cell-based
Method: (§1) The disclosure is based, in part, on the recognition that certain L-form bacteria are sensitive to (e.g., not resistant to treatment with) specific antibiotic agents. In some embodiments, resistance to antibiotic agents is tested by a diffusion tab (diffusion disk) test, for example as described in Reller et al. (2009) Clinical Infectious Diseases, 49(11): 1749-1755. However, the skilled artisan recognizes that additional methods of antibiotic sensitivity testing may also be used.
(§2) Bacterial strains identified in Example 5 were tested for antibiotic sensitivity by a diffusion disk test. […] Resistance to Oxacillin was also observed in the M. maritypicum samples.

M. maritypicum = assay: Antibiotic sensitivity by diffusion disk test, M. maritypicum; assay type: cell-based, Microbacterium maritypicum
Method: as §1, §2

[2] = strains cultured from subject 1545
[3] = strains cultured from subject 1609
[4] = strains cultured from subject 1619
[5] = strains cultured from subject 1636
[6] = strains cultured from subject 1642
[7] = strains cultured from subject 1644
[8] = strains cultured from subject 1842
[9] = strains cultured from subject 3016
[10] = strains cultured from subject 3025
[11] = strains cultured from subject 1538
[12] = strains cultured from subject 3164
[13] = strains cultured from subject 1905
[14] = strains cultured from subject 1985

Molecule: Cc1onc(-c2ccccc2)c1C(=O)N[C@@H]1C(=O)N2[C@@H]1SC(C)(C)[C@@H]2C(=O)O [Oxacillin]
- Resistance? [1, 2]: Oxacillin
- Resistance? [1, 3]: Oxaillin
- Resistance? [1, 4]: Oxacillin
- Resistance? [1, 5]: Oxacillin
- Resistance? [1, 6]: Oxacillin
- Resistance? [1, 7]: Oxacillin
- Resistance? [1, 8]: Oxacillin
- Resistance? [1, 9]: Oxacilin
- Resistance? [1, 10]: Oxacillin
- resistance observed in the M. maritypicum samples (M. maritypicum; M. maritypicum samples): Resistance

Molecule: C[C@@H](O)[C@H]1C(=O)N2C(C(=O)O)=C(S[C@@H]3CN[C@H](C(=O)N(C)C)C3)[C@H](C)[C@H]12 [Meropenem]
- Most Effective IV Antibiotic [1, 11]: Meropenem
- Most Effective IV Antibiotic [1, 3]: Meropenem
- Most Effective IV Antibiotic [1, 4]: Meropenem
- Most Effective IV Antibiotic [1, 5]: Meropenem
- Most Effective IV Antibiotic [1, 8]: Meropenem
- Most Effective IV Antibiotic [1, 10]: Meropenem
- Most Effective IV Antibiotic ([1]; strains cultured from subject 3104): Meropenem
- Most Effective IV Antibiotic [1, 12]: Meropenem

Molecule: Sulfa-Trimeth
- Resistance? [1, 2]: Sulfa-
- Resistance? [1, 6]: Sulfa-Trimeth,
- Resistance? [1, 9]: Sulfa-Trimeth,

Molecule: Amoxiclav
- Most Effective Oral Antibiotic [1, 11]: Amoxiclav
- Resistance? [1, 6]: Amoxiclav
- Most Effective Oral Antibiotic ([1]; strains cultured from subject 1888): Amoxiclav
- Most Effective Oral Antibiotic [1, 13]: Amoxiclav,
- Most Effective Oral Antibiotic [1, 9]: Amoxiclav
- Most Effective Oral Antibiotic [1, 10]: Amoxiclav

Molecule: Cc1ncc([N+](=O)[O-])n1CCO [Metronidazole]
- Resistance? [1, 11]: Metronidazole
- Resistance? [1, 2]: Metronidazile,
- Resistance? [1, 3]: Metronidazole,
- Resistance? [1, 4]: Metronidazole,
- Resistance? [1, 5]: Metronidazole,
- Resistance? [1, 6]: Metronidazole,
- Resistance? [1, 7]: Metronidazole,
- Resistance? ([1]; strains cultured from subject 1661): Metronidazole,
- Resistance? [1, 8]: Metronidazole,
- Resistance? [1, 14]: Metronidazole
- Resistance? [1, 9]: Metronidazole,
- Resistance? [1, 12]: Metronidazole
- resistance observed for M. maritypicum (M. maritypicum; in the majority of samples): resistance

Molecule: Penicillin
- Most Effective Oral Antibiotic [1, 13]: Penicillin
- Resistance? [1, 9]: Penicillin

Molecule: CO/N=C(\C(=O)N[C@@H]1C(=O)N2C(C(=O)O)=C(COC(N)=O)CS[C@H]12)c1ccco1 [Cefuroxime]
- Resistance? [1, 3]: Cefuroxime
- Resistance? [1, 6]: Cefuroxime
- Most Effective Oral Antibiotic [1, 7]: Cefuroxime
- Resistance? [1, 9]: Cefuroxime

Molecule: Rifapin
- Most Effective Oral Antibiotic [1, 14]: Rifapin
